# Results as given in article PMC3462495 (2012).
# Molecular target: p90 ribosomal S6 kinase 2 (RSK2), N-terminal kinase domain (mRSK2NTKD) (Mus musculus, UniProt P18654)
# Experiment: ITC
# Type: binding
# Chain of p90 ribosomal S6 kinase 2 (RSK2), N-terminal kinase domain (mRSK2NTKD) (P18654 45-346): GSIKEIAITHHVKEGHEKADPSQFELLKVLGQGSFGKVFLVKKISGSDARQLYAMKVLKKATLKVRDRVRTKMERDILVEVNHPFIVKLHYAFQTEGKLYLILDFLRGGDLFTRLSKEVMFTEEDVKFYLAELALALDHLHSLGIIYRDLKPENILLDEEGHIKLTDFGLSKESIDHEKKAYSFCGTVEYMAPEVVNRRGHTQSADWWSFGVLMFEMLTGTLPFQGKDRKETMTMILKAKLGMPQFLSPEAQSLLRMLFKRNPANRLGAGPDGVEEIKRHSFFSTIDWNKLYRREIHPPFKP
compound,measurement,value
Nc1ncnc2c1ncn2[C@@H]1O[C@H](COP(=O)(O)OP(=O)(O)NP(=O)(O)O)[C@@H](O)[C@H]1O [AMP-PNP],Kd,50 µM
